In patent publication US7381748B1, “Compounds and related methods for inhibition of gamma-aminobutyric acid aminotransferase” (Northwestern University, priority 2002, dated 2008):
Structures can show the parent of a compound that is named as a salt. Where two headings read alike, the source gives them in different places.

What was measured:
GABA-AT [1] = biological target: T1, GABA-AT (Sus scrofa, UniProt P80147); test: Time-dependent inactivation of GABA-AT; format: biochemical
T1 construct: purchased
T1 sequence (P80147 29-500): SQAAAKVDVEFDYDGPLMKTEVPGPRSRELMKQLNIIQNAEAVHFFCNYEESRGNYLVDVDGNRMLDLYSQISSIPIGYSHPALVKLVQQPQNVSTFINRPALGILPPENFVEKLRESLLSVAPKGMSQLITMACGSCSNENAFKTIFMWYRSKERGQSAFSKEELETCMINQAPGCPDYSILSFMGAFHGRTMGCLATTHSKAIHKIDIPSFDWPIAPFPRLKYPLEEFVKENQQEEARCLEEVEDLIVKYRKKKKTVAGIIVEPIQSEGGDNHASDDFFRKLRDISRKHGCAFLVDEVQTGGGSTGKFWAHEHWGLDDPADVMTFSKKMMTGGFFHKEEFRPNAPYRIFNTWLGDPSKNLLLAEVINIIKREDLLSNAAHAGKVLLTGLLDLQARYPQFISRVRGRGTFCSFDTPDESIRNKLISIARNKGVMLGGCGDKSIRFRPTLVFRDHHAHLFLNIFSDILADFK
Source text: Fluorine incorporation may also make a corresponding intermediate sufficiently reactive to be trapped by the enzyme. While the cis isomer is shown in Scheme 6.
Then a secondary plot of half-life versus the reciprocal of inactivator concentration was obtained to determine KI and kinact.

GABA-AT [2] = biological target: T1, GABA-AT; settings: cited from earlier work
GABA-AT [3] = biological target: T1, GABA-AT; settings: as substrate of GABA-AT; cited from earlier work

**Q.** For `NC1CC(C(=O)O)C/C1=C/F` [Compound 22, (Z)-(1S, 3S)-3-Amino-4-fluoromethylenyl-1-cyclopentanoic acid, hydrochloride salt], which “time-dependent inhibition of GABA-AT (in words)” value (GABA-AT [1]) is on record?
**A.** The value was “potent time-dependent inhibitors of GABA-AT”.

**Q.** For `C=C1C[C@H](C(=O)O)C[C@@H]1N` [Compound 7, 3β-Amino-4-methylenylcyclopentane-1β-carboxylic acid], which “GABA-AT inactivation (in words)” value (GABA-AT [2]; 2-mercaptoethanol added to the incubation mixture) is on record?
**A.** Its value is “no inactivation was observed”.

**Q.** What about the “GABA-AT inactivation (in words)” value (GABA-AT [2]; no 2-mercaptoethanol added) of the same compound?
**A.** The value was “inactivated GABA-AT”.

**Q.** For `NCCCC(=O)O` [GABA, γ-aminobutyric acid], which Km (GABA-AT [3]) is on record?
**A.** The Km was 2400 µM.

**Q.** And the kcat (GABA-AT [3])?
**A.** The kcat was 0.817 s⁻¹.

**Q.** For `NC1CC(C(=O)O)C/C1=C\F` [Compound 20, (E)-(1S, 3S)-3-Amino-4-fluoromethylenyl-1-cyclopentanoic acid, hydrochloride salt], which “time-dependent inhibition of GABA-AT (in words)” value (GABA-AT [1]) is on record?
**A.** Its value is “potent time-dependent inhibitors of GABA-AT”.

**Q.** Which “share of total inactivation accounted for by pathway a (Michael addition)” value (GABA-AT [2]) does the source give for `C=CC(N)CCC(=O)O` (stereo not shown) [vigabatrin] here?
**A.** Its value is 70-75%.
